Measurements published in patent US8853213B2, “Bicyclic compound for modulating G protein-coupled receptors” (Hanmi Pharm. Co., Ltd, priority 2011, dated 2014).

Target: T1, GPR119 (Homo sapiens, UniProt Q8TDV5)
T1 construct: host or cells: CHO-K1 (CRE-bla reporter, doxycycline-induced)
T1 sequence (Q8TDV5 1-335): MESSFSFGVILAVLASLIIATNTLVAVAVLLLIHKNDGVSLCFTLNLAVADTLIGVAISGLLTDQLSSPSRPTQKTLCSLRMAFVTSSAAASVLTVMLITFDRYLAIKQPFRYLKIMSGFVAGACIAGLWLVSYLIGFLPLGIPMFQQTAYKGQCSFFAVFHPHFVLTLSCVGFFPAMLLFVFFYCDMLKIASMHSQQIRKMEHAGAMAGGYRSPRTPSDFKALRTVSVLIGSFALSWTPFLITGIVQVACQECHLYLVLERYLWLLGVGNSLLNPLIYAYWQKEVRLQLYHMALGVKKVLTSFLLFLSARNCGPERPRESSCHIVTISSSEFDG
Assay: Controlling Effect of GPR119 in CRE-bla CHO-K1 Cells (EC50)
Type: cell-based
Conditions: GPR119 CRE-bla CHO-K1 cell line, 5 hr incubation with compound, β-lactamase LiveBLAzer-FRET B/G readout; read-out: controlling effect against GPR119 in CRE-bla CHO-K1 cell line (EC50)
Outline: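 CHO-K1 cells carrying GPR119 and a CRE-β-lactamase reporter, induced with doxycycline for 16-20 h at 37° C, then exposed to compounds in 10-fold dilutions for 5 h. CCF4-AM FRET substrate added for 2 h at room temperature; blue/green fluorescence (409 ex, […]) read and EC50 derived.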

Row | EC50 | Compound
1 | < 100 nM | COc1ccc(-c2csc3c(OC4CCN(c5nc(C(C)C)no5)CC4)ncnc23)c(Cl)c1 [Example 96, 5-(4-(7-(2-chloro-4-methoxyphenyl)thieno[3,2-d]pyrimidin-4-yloxy)piperidin-1-yl)-3-isopropyl-1,2,4-oxadiazole]
2 | > 1000 nM | CC(C)c1noc(N2CCC(Oc3ncnc4c(-c5ccc(F)c(F)c5F)csc34)CC2)n1 [Example 97, 4-[1-(3-isopropyl-[1,2,4]oxadiazol-5-yl)-piperidin-4-yloxy]-7-(2,3,4-trifluoro-phenyl)-thieno[3,2-d]pyrimidine]
3 | > 1000 nM | COc1ccc(-c2csc3c(OC4CCN(c5nc(C(C)C)no5)CC4)ncnc23)cc1F [Example 98, 7-(3-fluoro-4-methoxy-phenyl)-4-[1-(3-isopropyl-[1,2,4]oxadiazol-5-yl)-piperidin-4-yloxy]-thieno[3,2-d]pyrimidine]
4 | 100 to 1000 nM | CC(C)c1noc(N2CCC(Oc3ncnc4c(-c5ccc(OC(F)(F)F)cc5)csc34)CC2)n1 [Example 99, 4-[1-(3-isopropyl-[1,2,4]oxadiazol-5-yl)-piperidin-4-yloxy]-7-(4-trifluoromethoxy-phenyl)-thieno[3,2-d]pyrimidine]
5 | > 1000 nM | CC(C)c1noc(N2CCC(Oc3ncnc4c(-c5ccc(SC(F)(F)F)cc5)csc34)CC2)n1 [Example 100, 4-[1-(3-isopropyl-[1,2,4]oxadiazol-5-yl)-piperidin-4-yloxy]-7-(4-trifluoromethylsulfanyl-phenyl)-thieno[3,2-d]pyrimidine]
6 | > 1000 nM | CC(C)c1noc(N2CCC(Oc3ncnc4c(-c5ccc(S(=O)(=O)C(F)(F)F)cc5F)csc34)CC2)n1 [Example 101, 7-(2-fluoro-4-trifluoro(methanesulfonyl)phenyl)-4-[1-(3-isopropyl-[1,2,4]oxadiazol-5-yl)-piperidin-4-yloxy]-thieno[3,2-d]pyrimidine]
7 | 100 to 1000 nM | COC(=O)c1ccc(-c2csc3c(OC4CCN(c5nc(C(C)C)no5)CC4)ncnc23)cc1 [Example 102, 4-{4-[1-(3-isopropyl-[1,2,4]oxadiazol-5-yl)-piperidin-4-yloxy]-thieno[3,2-d]pyrimidin-7-yl}-benzoic acid methylester]
8 | < 100 nM | CC(=O)c1ccc(-c2csc3c(OC4CCN(c5nc(C(C)C)no5)CC4)ncnc23)cc1 [Example 103, 1-(4-{4-[1-(3-isopropyl-[1,2,4]oxadiazol-5-yl)-piperidin-4-yloxy]-thieno[3,2-d]pyrimidin-7-yl}-phenyl)-ethanone]
9 | < 100 nM | CC(C)c1noc(N2CCC(Oc3ncnc4c(-c5ccc(S(=O)(=O)C6CC6)cc5)csc34)CC2)n1 [Example 104, 7-(4-cyclopropylsulfonyl-phenyl)-4-[1-(3-isopropyl-[1,2,4]oxadiazol-5-yl)-piperidin-4-yloxy]-thieno[3,2-d]pyrimidine]
10 | < 100 nM | CC(C)c1noc(N2CCC(Oc3ncnc4c(-c5ccc(S(=O)(=O)C(C)C)cc5)csc34)CC2)n1 [Example 105, 4-[1-(3-isopropyl-[1,2,4]oxadiazol-5-yl)-piperidin-4-yloxy]-7-(4-isopropylsulfonyl-phenyl)-thieno[3,2-d]pyrimidine]
11 | < 100 nM | CCCS(=O)(=O)c1ccc(-c2csc3c(OC4CCN(c5nc(C(C)C)no5)CC4)ncnc23)cc1 [Example 106, 4-[1-(3-isopropyl-[1,2,4]oxadiazol-5-yl)-piperidin-4-yloxy]-7-(4-propylsulfonyl-phenyl)-thieno[3,2-d]pyrimidine]
12 | < 100 nM | CCCS(=O)(=O)c1ccc(-c2csc3c(OC4CCN(c5nc(C(C)C)no5)CC4)ncnc23)c(F)c1 [Example 107, 7-(2-fluoro-(4-propylsulfonyl)-phenyl)-4-[1-(3-isopropyl-[1,2,4]oxadiazol-5-yl)-piperidin-4-yloxy]-thieno[3,2-d]pyrimidine]
13 | < 100 nM | CC(C)c1noc(N2CCC(Oc3ncnc4c(-c5ccc(S(=O)(=O)C6CCCC6)cc5)csc34)CC2)n1 [Example 108, 7-(4-cyclopentylsulfonyl-phenyl)-4-[1-(3-isopropyl-[1,2,4]oxadiazol-5-yl)-piperidin-4-yloxy]-thieno[3,2-d]pyrimidine]
14 | 100 to 1000 nM | CC(C)(C)OC(=O)N1CCC(Nc2ncnc3c(-c4ccc(S(C)(=O)=O)cc4)csc23)CC1 [Example 109, tert-butyl 4-(7-(4-methanesulfonyl-phenyl)thieno[3,2-d]pyrimidin-4-ylamino)piperidin-1-carboxylate]
15 | > 1000 nM | CS(=O)(=O)c1ccc(-c2csc3c(NC4CCNCC4)ncnc23)cc1 [Example 110, 7-(4-methanesulfonyl-phenyl)-N-(piperidin-4-yl)thieno[3,2-d]pyrimidin-4-amine]
16 | > 1000 nM | CCc1cnc(N2CCC(Nc3ncnc4c(-c5ccc(S(C)(=O)=O)cc5)csc34)CC2)nc1 [Example 111, N-(1-(5-ethylpyrimidin-2-yl)piperidin-4-yl)-7-(4-methanesulfonyl-phenyl)thieno[3,2-d]pyrimidin-4-amine]
17 | < 100 nM | CN(c1ncnc2c(-c3ccc(S(C)(=O)=O)cc3)csc12)C1CCN(C(=O)OC(C)(C)C)CC1 [Example 112, tert-butyl 4-(methyl(7-(4-methanesulfonyl-phenyl)thieno[3,2-d]pyrimidin-4-yl)amino)piperidin-1-carboxylate]
18 | > 1000 nM | CCc1cnc(N2CCC(N(C)c3ncnc4c(-c5ccc(S(C)(=O)=O)cc5)csc34)CC2)nc1 [Example 114, [1-(5-ethylpyrimidin-2-yl)-piperidin-4-yl]-[7-(4-methanesulfonyl-phenyl)-thieno[3,2-d]pyrimidin-4-yl]-methylamine]
19 | > 1000 nM | CCN(c1ncnc2c(-c3ccc(S(C)(=O)=O)cc3)csc12)C1CCN(c2ccc(C(F)(F)F)cn2)CC1 [Example 115, Ethyl-[7-(4-methanesulfonyl-phenyl)-thieno[3,2-d]pyrimidin-4-yl]-(5′-trifluoromethyl-3,4,5,6-tetrahydro-2H-[1,2′]bipyridinyl-4-yl)amine]
20 | > 1000 nM | Cn1cc(-c2ccc(S(C)(=O)=O)cc2)c2ncnc(NC3CCN(C(=O)OC(C)(C)C)CC3)c21 [Example 116, tert-butyl 4-(5-methyl-7-(4-methanesulfonyl-phenyl)-5H-pyrrolo[3,2-d]pyrimidin-4-ylamino)piperidin-1-carboxylate]
21 | 100 to 1000 nM | CC(C)c1noc(C2CCN(c3ncnc4c(-c5ccc(S(C)(=O)=O)cc5)cn(C)c34)CC2)n1 [Example 117, 3-isopropyl-5-(1-(5-methyl-7-(4-methanesulfonyl-phenyl)-5H-pyrrolo[3,2-d]pyrimidin-4-yl)piperidin-4-yl)-1,2,4-oxadiazole]
22 | 100 to 1000 nM | CC(C)c1noc(C2CCN(c3ncnc4c(-c5ccc(-n6cnnn6)cc5)csc34)CC2)n1 [Example 118, 5-(1-(7-(4-(1H-tetrazol-1-yl)phenyl)thieno[3,2-d]pyrimidin-4-yl)piperidin-4-yl)-3-iso propyl-1,2,4-oxadiazole]
23 | < 100 nM | CC(C)(C)c1noc(N2CCC(Oc3ncnc4c(-c5ccc(-n6cncn6)cc5)csc34)CC2)n1 [Example 119, 5-(4-(7-(4-(1H-1,2,4-triazol-1-yl)phenyl)thieno[3,2-d]pyrimidin-4-yloxy)piperidin-1-yl)-3-tert-butyl-1,2,4-oxadiazole]
24 | < 100 nM | Cn1cc(-c2ccc(-n3cnnn3)cc2)c2ncnc(OC3CCN(C(=O)OC(C)(C)C)CC3)c21 [Example 120, tert-butyl 4-(7-(4-(1H-tetrazol-1-yl)phenyl)-5-methyl-5H-pyrrolo[3,2-d]pyrimidin-4-yloxy)piperidin-1-carboxylate]
25 | > 1000 nM | CCc1cnc(N2CCC(Oc3ncnc4c(-c5ccc(N)cc5)cn(C)c34)CC2)nc1 [Example 121, 4-(4-(1-(5-ethylpyrimidin-2-yl)piperidin-4-yloxy)-5-methyl-5H-pyrrolo[3,2-d]pyrimidin-7-yl)benzenamine]
26 | < 100 nM | CCc1cnc(N2CCC(Oc3ncnc4c(-c5ccc(-n6cnnn6)cc5)cn(C)c34)CC2)nc1 [Example 122, 7-(4-(1H-tetrazol-1-yl)phenyl)-4-(1-(5-ethylpyrimidin-2-yl)piperidin-4-yloxy)-5-methyl-5H-pyrrolo[3,2-d]pyrimidine]
27 | < 100 nM | Cn1cc(-c2ccc(-n3cnnn3)cc2)c2ncnc(OC3CCN(c4ncc(C(F)(F)F)cn4)CC3)c21 [Example 123, 7-(4-(1H-tetrazol-1-yl)phenyl)-5-methyl-4-(1-(5-(trifluoromethyl)pyrimidin-2-yl)piperidin-4-yloxy)-5H-pyrrolo[3,2-d]pyrimidine]
28 | > 1000 nM | Cn1cc(-c2ccc(-n3cnnn3)cc2)c2ncnc(O[C@H]3CCN(C(=O)OC(C)(C)C)C3)c21 [Example 125, (S)-tert-butyl 3-[5-methyl-7-(4-tetrazol-1-yl-phenyl)-5H-pyrrolo[3,2-d]pyrimidin-4-yloxy)pyrrolidin-1-carboxylate]
